{
  "source": "paper PMC10178848",
  "about": "“Modulating fast skeletal muscle contraction protects skeletal muscle in animal models of Duchenne muscular dystrophy” (The Journal of Clinical Investigation, 2023)",
  "key": {"RET": {"target": "T1, RET (Homo sapiens, UniProt P07949)", "T1 construct": "purchased Eurofins DiscoverX (KINOMEscan; SAFETYscan E/IC50 ELECT)", "T1 sequence (P07949 29-1114)": "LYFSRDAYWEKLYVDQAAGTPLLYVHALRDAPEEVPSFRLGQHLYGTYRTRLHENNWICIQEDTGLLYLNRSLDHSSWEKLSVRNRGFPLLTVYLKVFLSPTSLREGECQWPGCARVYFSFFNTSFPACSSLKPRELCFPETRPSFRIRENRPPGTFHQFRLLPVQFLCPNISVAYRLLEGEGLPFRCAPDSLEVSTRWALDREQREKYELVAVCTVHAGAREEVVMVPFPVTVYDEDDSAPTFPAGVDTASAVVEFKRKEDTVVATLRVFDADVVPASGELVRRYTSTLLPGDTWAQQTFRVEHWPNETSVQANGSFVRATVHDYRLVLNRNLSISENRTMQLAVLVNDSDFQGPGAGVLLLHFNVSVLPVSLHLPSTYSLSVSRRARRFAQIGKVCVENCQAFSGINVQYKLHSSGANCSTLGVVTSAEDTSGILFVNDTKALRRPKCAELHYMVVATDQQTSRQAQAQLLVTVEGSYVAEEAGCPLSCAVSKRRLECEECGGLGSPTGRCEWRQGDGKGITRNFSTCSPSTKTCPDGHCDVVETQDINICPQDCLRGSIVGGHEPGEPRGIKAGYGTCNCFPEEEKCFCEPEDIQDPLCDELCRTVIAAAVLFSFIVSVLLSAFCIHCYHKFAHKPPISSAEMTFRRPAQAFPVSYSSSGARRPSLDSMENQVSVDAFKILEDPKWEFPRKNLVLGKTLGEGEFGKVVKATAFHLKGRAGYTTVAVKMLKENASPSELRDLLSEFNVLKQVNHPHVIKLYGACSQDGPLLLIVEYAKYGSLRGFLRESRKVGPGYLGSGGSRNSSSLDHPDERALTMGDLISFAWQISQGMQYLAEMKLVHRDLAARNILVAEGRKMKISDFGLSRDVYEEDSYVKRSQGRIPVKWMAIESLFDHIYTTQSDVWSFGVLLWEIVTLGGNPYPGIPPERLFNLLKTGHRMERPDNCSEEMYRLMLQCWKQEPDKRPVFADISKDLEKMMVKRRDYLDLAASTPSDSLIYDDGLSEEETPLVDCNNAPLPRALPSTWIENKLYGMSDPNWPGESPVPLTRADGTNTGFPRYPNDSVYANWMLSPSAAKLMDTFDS", "test": "KINOMEscan scanEDGE", "format": "binding", "details": "20 uM"}, "TIE2": {"target": "T2, TIE2 (Homo sapiens, UniProt Q02763)", "T2 construct": "purchased Eurofins DiscoverX (KINOMEscan; SAFETYscan E/IC50 ELECT)", "T2 sequence (Q02763 23-1124)": "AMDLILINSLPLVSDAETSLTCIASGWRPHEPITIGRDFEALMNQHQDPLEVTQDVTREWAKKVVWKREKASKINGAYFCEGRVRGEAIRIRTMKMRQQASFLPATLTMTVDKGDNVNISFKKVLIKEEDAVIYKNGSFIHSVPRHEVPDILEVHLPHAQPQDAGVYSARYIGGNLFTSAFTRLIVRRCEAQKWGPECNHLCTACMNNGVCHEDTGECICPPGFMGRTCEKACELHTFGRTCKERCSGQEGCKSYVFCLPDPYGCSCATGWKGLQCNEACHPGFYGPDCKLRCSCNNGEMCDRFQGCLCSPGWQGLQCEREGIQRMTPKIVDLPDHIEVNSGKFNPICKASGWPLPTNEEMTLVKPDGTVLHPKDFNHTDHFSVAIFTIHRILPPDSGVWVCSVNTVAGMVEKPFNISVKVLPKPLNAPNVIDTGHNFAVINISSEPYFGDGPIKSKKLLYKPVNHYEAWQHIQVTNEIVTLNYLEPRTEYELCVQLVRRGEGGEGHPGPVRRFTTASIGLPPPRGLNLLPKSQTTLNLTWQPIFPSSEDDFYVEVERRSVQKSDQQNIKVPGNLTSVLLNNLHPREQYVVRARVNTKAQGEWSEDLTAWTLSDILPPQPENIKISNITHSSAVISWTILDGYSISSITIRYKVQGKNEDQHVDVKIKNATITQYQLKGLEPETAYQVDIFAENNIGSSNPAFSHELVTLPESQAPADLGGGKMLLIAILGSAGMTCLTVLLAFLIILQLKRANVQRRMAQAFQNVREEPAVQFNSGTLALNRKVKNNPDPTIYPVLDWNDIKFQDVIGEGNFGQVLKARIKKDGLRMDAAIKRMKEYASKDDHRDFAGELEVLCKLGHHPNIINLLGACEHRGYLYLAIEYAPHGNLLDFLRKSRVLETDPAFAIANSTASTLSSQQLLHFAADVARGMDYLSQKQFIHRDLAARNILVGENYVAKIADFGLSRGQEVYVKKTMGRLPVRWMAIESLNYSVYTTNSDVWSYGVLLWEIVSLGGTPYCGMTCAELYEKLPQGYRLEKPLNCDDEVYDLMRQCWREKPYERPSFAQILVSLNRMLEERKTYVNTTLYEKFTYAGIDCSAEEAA", "test": "KINOMEscan scanEDGE", "format": "binding", "details": "20 uM"}, "mdx mice": {"system": "mdx mice", "test": "Plasma CK activity in mice", "format": "in vivo, mouse", "method": "Plasma from mice and dogs were analyzed for CK activity using standard protocols (Pointe Scientific, Thermo Fisher Scientific)."}, "[1]": {"target": "T3, ABL1(T315I)-phosphorylated (Homo sapiens, UniProt P00519, T315I)", "T3 construct": "purchased Eurofins DiscoverX (KINOMEscan; SAFETYscan E/IC50 ELECT)", "test": "KINOMEscan scanEDGE", "format": "binding", "details": "20 uM"}, "EGFR(L858R)": {"target": "T4, EGFR(L858R) (Homo sapiens, UniProt P00533, L858R)", "T4 construct": "purchased Eurofins DiscoverX (KINOMEscan; SAFETYscan E/IC50 ELECT)", "test": "KINOMEscan scanEDGE", "format": "binding", "details": "20 uM"}, "TGFBR1": {"target": "T5, TGFBR1 (Homo sapiens, UniProt P36897)", "T5 construct": "purchased Eurofins DiscoverX (KINOMEscan; SAFETYscan E/IC50 ELECT)", "T5 sequence (P36897 34-503)": "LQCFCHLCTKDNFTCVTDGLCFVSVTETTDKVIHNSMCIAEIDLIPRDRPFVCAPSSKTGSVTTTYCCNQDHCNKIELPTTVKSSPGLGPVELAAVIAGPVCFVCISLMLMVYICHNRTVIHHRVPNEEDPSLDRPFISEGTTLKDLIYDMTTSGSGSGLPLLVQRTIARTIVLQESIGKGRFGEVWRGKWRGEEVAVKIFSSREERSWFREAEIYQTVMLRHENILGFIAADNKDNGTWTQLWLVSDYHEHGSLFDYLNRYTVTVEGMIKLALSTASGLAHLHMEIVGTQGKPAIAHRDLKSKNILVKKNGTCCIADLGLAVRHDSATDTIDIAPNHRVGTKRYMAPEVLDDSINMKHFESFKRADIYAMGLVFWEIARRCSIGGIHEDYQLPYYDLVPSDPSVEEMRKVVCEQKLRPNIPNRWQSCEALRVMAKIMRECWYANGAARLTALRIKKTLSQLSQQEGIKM", "test": "KINOMEscan scanEDGE", "format": "binding", "details": "20 uM"}, "IKK-alpha": {"target": "T6, IKK-alpha (Homo sapiens, UniProt O15111)", "T6 construct": "purchased Eurofins DiscoverX (KINOMEscan; SAFETYscan E/IC50 ELECT)", "T6 sequence (O15111 whole entry)": "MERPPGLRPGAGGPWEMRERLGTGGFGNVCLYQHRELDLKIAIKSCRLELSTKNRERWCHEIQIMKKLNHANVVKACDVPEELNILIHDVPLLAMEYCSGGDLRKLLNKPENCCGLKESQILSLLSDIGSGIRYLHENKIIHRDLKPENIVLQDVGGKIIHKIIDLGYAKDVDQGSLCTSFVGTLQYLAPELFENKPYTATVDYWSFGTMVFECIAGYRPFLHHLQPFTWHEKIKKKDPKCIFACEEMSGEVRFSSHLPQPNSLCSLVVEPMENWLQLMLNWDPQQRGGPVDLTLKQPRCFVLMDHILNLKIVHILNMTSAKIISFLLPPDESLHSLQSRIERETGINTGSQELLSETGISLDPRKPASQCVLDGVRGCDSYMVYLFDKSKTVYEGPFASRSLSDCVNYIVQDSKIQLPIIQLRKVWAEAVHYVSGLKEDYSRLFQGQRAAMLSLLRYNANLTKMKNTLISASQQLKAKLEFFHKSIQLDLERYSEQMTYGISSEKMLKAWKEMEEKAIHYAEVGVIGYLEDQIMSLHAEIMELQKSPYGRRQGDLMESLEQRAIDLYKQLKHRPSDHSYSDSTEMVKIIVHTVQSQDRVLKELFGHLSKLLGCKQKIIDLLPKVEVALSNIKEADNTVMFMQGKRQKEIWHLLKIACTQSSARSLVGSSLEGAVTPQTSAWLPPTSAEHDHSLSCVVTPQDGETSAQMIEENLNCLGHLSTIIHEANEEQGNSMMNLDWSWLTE", "test": "KINOMEscan scanEDGE", "format": "binding", "details": "20 uM"}, "CHEK1": {"target": "T7, CHEK1 (Homo sapiens, UniProt O14757)", "T7 construct": "purchased Eurofins DiscoverX (KINOMEscan; SAFETYscan E/IC50 ELECT)", "T7 sequence (O14757 whole entry)": "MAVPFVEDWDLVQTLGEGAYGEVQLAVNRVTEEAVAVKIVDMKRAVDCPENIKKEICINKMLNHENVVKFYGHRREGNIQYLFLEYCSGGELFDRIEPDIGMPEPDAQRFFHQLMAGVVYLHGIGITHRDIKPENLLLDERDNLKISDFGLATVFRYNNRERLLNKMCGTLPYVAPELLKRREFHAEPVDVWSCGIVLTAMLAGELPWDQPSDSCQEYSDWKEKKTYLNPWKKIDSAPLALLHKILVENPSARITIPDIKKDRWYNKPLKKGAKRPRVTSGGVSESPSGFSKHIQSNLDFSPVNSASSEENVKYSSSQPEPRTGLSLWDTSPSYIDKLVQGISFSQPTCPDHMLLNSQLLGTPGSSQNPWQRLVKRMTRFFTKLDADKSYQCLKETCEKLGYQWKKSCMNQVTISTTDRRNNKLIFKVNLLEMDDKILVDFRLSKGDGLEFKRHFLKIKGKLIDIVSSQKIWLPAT", "test": "KINOMEscan scanEDGE", "format": "binding", "details": "20 uM"}, "[2]": {"test": "Muscle concentration in GRMD dogs", "format": "in vivo, dog", "details": "end of the dosing period", "method": "We viewed data in mice as encouraging but were interested in testing EDG-5506 in dystrophic golden retriever (GRMD) dogs; their muscle composition and function more closely resemble that of humans ([40]). Older (7 months of age), disease-stable GRMD were dosed in 2-week periods with vehicle, then EDG-5506, followed by a vehicle washout. As fast fiber atrophy has been documented in DMD dogs ([16]), we confirmed sustained fast myosin from biopsies of age-matched WT/GRMD gastrocnemius muscle (Supplemental Figure 6A). EDG-5506 concentration was measured from a muscle biopsy at the end of the dosing period (4,951 ± 217 ng/g muscle). EDG-5506 administration was associated with a more than 50% decrease in CK, returning to pretreatment levels after compound washout (Figure 6A). Physical activity normally increases CK in GRMD ([41]), raising the question of whether EDG-5506 lowered CK via decreasing physical activity. We sought to test the effect of EDG-5506 on habitual activity in the same dogs using an activity monitor ([42]). EDG-5506 improved average daily activity by more than 30% (Figure 6B and Supplemental Figure 6B) with reversible increases in time active and decreases in time resting (Figure 6C). One GRMD used in the biomarker study was too severely progressed to participate in this study."}, "healthy mice, TA muscle": {"system": "healthy mice, TA muscle", "test": "Cardiotoxin sterile muscle injury repair", "format": "in vivo, mouse", "details": "day 8 post injury", "method": "For sterile muscle injury, mice were anesthetized with isoflurane and 50 μL cardiotoxin (12 × 10^–6 M, 217503, Millipore) injected in the TA muscle. Muscles 8 days after injury were snap frozen in nitrogen-chilled isopentane. 8 μm cryosections were cut and stained with H&E. For each analysis, more than 10 slides (per condition/group) containing 6 muscle sections/sample were used, and myofibers in the injured area were counted and measured with a Mirax digital scanner and HALO software ([68]). For adult mouse studies, muscles were fixed in 10% formalin and embedded in paraffin for sectioning. Laminin staining (RB-082, Thermo Fisher Scientific) was used to outline fibers, and picrosirius red was used for collagen accumulation. Image analysis was performed using ImarisX64 software (Bitplane AG), and fiber sizing was calculated using minimal Feret’s diameter ([69]). For after weaning juvenile mouse studies, cryosections from soleus muscles were mounted in ProLong antifade mountant with DAPI (Thermo Fisher Scientific). Fiber type, size, and central nucleation were quantified with analysis via SMASH ([70]) and ImageJ (NIH). Antibodies used were mouse anti-MHC2A (1:50, SC-71, Developmental Studies Hybridoma Bank) and mouse anti-eMHC (1:10, BF-45, Developmental Studies Hybridoma Bank)."}},
  "data": [
    {"molecule": "O=c1ccc(-c2cnc(OCC(F)(F)F)nc2)nn1Cc1cncc(F)c1", "note": "[EDG-5506]", "values": [
      {"measurement": "binding, % of control", "setting": "RET", "value": "52 % of control"},
      {"measurement": "binding, % of control", "setting": "TIE2", "value": "95 % of control"},
      {"measurement": "plasma CK activity after in situ injury", "setting": "mdx mice; 1 hour after in situ injury", "value": "lowered plasma CK activity"},
      {"measurement": "postexercise plasma CK", "setting": "mdx mice; 1 hour after rotarod or grip strength tests", "value": "significantly lower"},
      {"measurement": "binding, % of control", "setting": "[1]", "value": "94 % of control"},
      {"measurement": "binding, % of control", "setting": "EGFR(L858R)", "value": "95 % of control"},
      {"measurement": "binding, % of control", "setting": "TGFBR1", "value": "100 % of control"},
      {"measurement": "binding, % of control", "setting": "IKK-alpha", "value": "93 % of control"},
      {"measurement": "binding, % of control", "setting": "CHEK1", "value": "100 % of control"},
      {"measurement": "EDG-5506 concentration in muscle biopsy", "setting": "[2]", "value": "4,951 ± 217 ng/g muscle"},
      {"measurement": "muscle repair after cardiotoxin injury", "setting": "healthy mice, TA muscle", "value": "did not interfere with muscle repair"}
    ]}
  ]
}
